Among the data in patent US9884832B2 (priority 2011, dated 2018) are inhibition values, retold here.

Each structure is given as a SMILES string.

The target in the first assay is AM2 S31 (wild-type serine at position 31 in the M2 protein), influenza virus A/Udorn/72 (Influenza A virus, UniProt P0DOF5). The assay can be described thus: cell-based. Particulars: 100 uM; Xenopus oocytes; activity range class; read-out: S31 OOcyte Inhibition at 100 uM (%).
Sequence of AM2 S31 (wild-type serine at position 31 in the M2 protein), influenza virus A/Udorn/72 (P0DOF5 whole entry, looked up): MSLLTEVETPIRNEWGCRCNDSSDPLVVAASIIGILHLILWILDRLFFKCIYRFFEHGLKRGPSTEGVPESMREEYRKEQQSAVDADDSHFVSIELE
For orientation: inhibition means the relative decrease from the control value, in per cent. On to `COc1cccc(COc2ccc(CNC34CC5CC(CC(C5)C3)C4)cc2)c1` [Example 14a, Adamantan-1-yl-[4-(3-methoxy-benzyloxy)-benzyl]-amine], for which the inhibition at 100 µM fell in the range of 0 to 30%.
Regarding `Brc1ccc(CNC23CC4CC(CC(C4)C2)C3)[nH]1` [Example 88a, Adamantan-1-yl-(5-bromo-1H-pyrrol-2-ylmethyl)-amine], the inhibition at 100 µM lay within 31 to 95%.
Regarding `c1ccc(C2=NOC(CNC34CC5CC(CC(C5)C3)C4)C2)cc1` (stereo not shown) [Example 167a, N-((3-phenyl-4,5-dihydroisoxazol-5-yl)methyl)adamantan-1-amine], the inhibition at 100 µM was in the range of 0 to 30%.
Still for that read-out and setting: with `OC12CC3CC(C1)CC(NCc1cc(-c4ccccc4)on1)(C3)C2` [Example 194a, (1s,3r,5R,7S)-3-(((5-phenylisoxazol-3-yl)methyl)amino)adamantan-1-ol] the figure was 0 to 30%; with `Clc1ccc(/C=C/CNC23CC4CC(CC(C4)C2)C3)cc1` [Example 200a, N-((E)-3-(4-chlorophenyl)allyl)adamantan-1-amine], 0 to 30%.
Still for that read-out and setting: with `c1cncc(-c2noc(CNC34CC5CC(CC(C5)C3)C4)n2)c1` [Example 135a, Adamantan-1-yl-(3-pyridin-3-yl-[1,2,4]oxadiazol-5-ylmethyl)-amine] the figure was 0 to 30%; with `O=c1ccc2cc(CNC34CC5CC(CC(C5)C3)C4)ccc2o1` [Example 42a, 6-((adamantan-1-ylamino)methyl)-2H-chromen-2-one], 0 to 30%.
In the case of `c1c[nH]c(CNC23CC4CC(CC(C4)C2)C3)c1` [Example 72a, Adamantan-1-yl-(1H-pyrrol-2-ylmethyl)-amine], the inhibition at 100 µM was 31 to 95%.
Regarding `c1ccc(-c2cc(CNC34CC5CC(CC(C5)C3)C4)on2)cc1` [Example 164a], the inhibition at 100 µM lay in the range of 0 to 30%.
`c1csc(C2=NOC(CNC34CC5CC(CC(C5)C3)C4)C2)c1` (stereo not shown) [Example 168a, N-((3-(thiophen-2-yl)-4,5-dihydroisoxazol-5-yl)methyl)adamantan-1-amine]: the inhibition at 100 µM is 0 to 30%.
With `OC12CC3CC(C1)CC(NCc1cccs1)(C3)C2` [Example 187a, 3-[(Thiophen-2-ylmethyl)-amino]adamantan-1-ol], the inhibition at 100 µM fell in the range of 0 to 30%.
Same read-out and setting: with `Brc1cnc(CNC23CC4CC(CC(C4)C2)C3)[nH]1` [Example 89a, Adamantan-1-yl-(5-bromo-1H-imidazol-2-ylmethyl)-amine] the figure was 31 to 95%.
Consider `Brc1ccc(CNC23CC4CC(CC(C4)C2)C3)nc1` [Example 54a, Adamantan-1-yl-(5-bromo-pyridin-2-ylmethyl)-amine], for which the inhibition at 100 µM lay in the range of 31 to 95%.
As for `O=[N+]([O-])c1ccc(CNC23CC4CC(CC(C4)C2)C3)s1` [Example 100a, N-((5-nitrothiophen-2-yl)methyl)adamantan-1-amine], the inhibition at 100 µM was in the range of 31 to 95%.
With `COc1ccc2cc(CNC34CC5CC(CC(C5)C3)C4)ccc2c1` [Example 40a, Adamantan-1-yl-(6-methoxy-naphthalen-2-ylmethyl)-amine], the inhibition at 100 µM lay in the range of 0 to 30%.
With `Cc1ccc(CNC23CC4CC(CC(C4)C2)C3)s1` [Example 78a, N-((5-methylthiophen-2-yl)methyl)adamantan-1-amine], the inhibition at 100 µM fell in the range of 31 to 95%.
Take `c1cc(C2CCCCC2)ccc1CNC12CC3CC(CC(C3)C1)C2` [Example 10a, Adamantan-1-yl-(4-cyclohexyl-benzyl)-amine]: the inhibition at 100 µM lay within 0 to 30%.
As for `Cc1ccsc1CNC12CC3CC(CC(C3)C1)C2` [Example 76a, N-((3-methylthiophen-2-yl)methyl)adamantan-1-amine], the inhibition at 100 µM lay within 31 to 95%.
As for `Cc1nc(CNC23CC4CC(CC(C4)C2)C3)c[nH]1` [Example 99a, N-((2-methyl-1H-imidazol-4-yl)methyl)adamantan-1-amine], the inhibition at 100 µM is 0 to 30%.
Same read-out and setting: with `c1csc(-c2ccc(CNC34CC5CC(CC(C5)C3)C4)cc2)c1` [Example 29a, N-(4-(Thiophen-2-yl)benzyl)adamantan-1-amine methanesulfonate] the figure was 0 to 30%.

The assay is the same for the next values; noted with them: Table 1; 100 uM; Xenopus oocytes, pH 5.5, -20 mV; read-out: S31 OOcyte Inhibition at 100 uM (%).
For `c1cn(-c2ccc(CNC34CC5CC(CC(C5)C3)C4)cc2)cn1` [Example 36, Adamantan-1-yl-(4-imidazol-1-yl-benzyl)-amine], the inhibition at 100 µM was in the range of 0 to 30%.
Take `[O-][n+]1ccc(CNC23CC4CC(CC(C4)C2)C3)cc1` [Example 74, Adamantan-1-yl-(1-oxy-pyridin-4-ylmethyl)-amine]: the inhibition at 100 µM is 0 to 30%.
With `Oc1ccc(CNC23CC4CCC(CC(C4)C2)C3)c(O)c1` [Example 110, 4-(Tricyclo[4.3.1.13,8]undec-1-ylaminomethyl)-benzene-1,3-diol], the inhibition at 100 µM lay in the range of 31 to 95%.
In the case of `NC(=O)COc1ccc(CNC23CC4CC(CC(C4)C2)C3)cc1` [Example 39, 2-(4-((Adamantan-1-ylamino)methyl)phenoxy)acetamide], the inhibition at 100 µM lay within 0 to 30%.
Take `Oc1ccc(CNC2C3CC4CC(C3)CC2C4)cc1` (stereo not shown) [Example 99, 4-(Adamantan-2-ylaminomethyl)-phenol]: the inhibition at 100 µM lay in the range of 31 to 95%.
Regarding `c1cc2cc(CNC34CC5CC(CC(C5)C3)C4)sc2s1` [Example 79, Adamantan-1-yl-thieno[2,3-b]thiophen-2-ylmethyl-amine], the inhibition at 100 µM is 31 to 95%.
In the case of `c1cc2cc(CNC34CC5CC(CC(C5)C3)C4)[nH]c2s1` [Example 82, Adamantan-1-yl-(6H-thieno[2,3-b]pyrrol-5-ylmethyl)-amine], the inhibition at 100 µM lay within 31 to 95%.
On the same count and under the same terms, the same measure for `c1cc(COc2ccc(CNC34CC5CC(CC(C5)C3)C4)cc2)co1` [Example 22, Adamantan-1-yl-[4-(furan-3-ylmethoxy)-benzyl]-amine]: 31 to 95%.
As for `OC1CCN(C2C3CC4CC(C3)CC2C4)CC1` (stereo not shown) [Example 104, 1-Adamantan-2-yl-piperidin-4-ol], the inhibition at 100 µM was 0 to 30%.
As for `COc1ccc(CNC23CC4CC(CC(C4)C2)C3)cc1` [Example 16, Adamantan-1-yl-(4-methoxy-benzyl)-amine], the inhibition at 100 µM was in the range of 31 to 95%.
Same read-out and setting: the same measure for `N=C(Nc1ccc(O)cc1)C12CC3CC(CC(C3)C1)C2` [Example 5]: 31 to 95%.

Staying with this assay, now noted: Table 3; 100 uM; Xenopus oocytes, pH 5.5, -20 mV; read-out: S31 OOcyte Inhibition at 100 uM (%).
Take `COc1ncc(CNC23CC4CC(CC(C4)C2)C3)cn1` [Example 55b, N-((2-methoxypyrimidin-5-yl)methyl)adamantan-1-amine]: the inhibition at 100 µM was in the range of 0 to 30%.
As for `COc1ccc2nc(CNC34CC5CC(CC(C5)C3)C4)[nH]c2c1` [Example 79b, Adamantan-1-yl-(6-methoxy-1H-benzoimidazol-2-ylmethyl)-amine], the inhibition at 100 µM was in the range of 0 to 30%.
As for `CC(C)Cc1nc(CNC23CC4CC(CC(C4)C2)C3)no1` [Example 22b, N-((5-isobutyl-1,2,4-oxadiazol-3-yl)methyl)adamantan-1-amine], the inhibition at 100 µM lay in the range of 0 to 30%.
Consider `COc1ccccc1-c1noc(CNC23CC4CC(CC(C4)C2)C3)n1` [Example 30b, N-((3-(2-methoxyphenyl)-1,2,4-oxadiazol-5-yl)methyl)adamantan-1-amine], for which the inhibition at 100 µM lay within 0 to 30%.
Turning to `CC(C)c1cc(CNC23CC4CC(CC(C4)C2)C3)no1` [Example 27b, N-((5-isopropylisoxazol-3-yl)methyl)adamantan-1-amine], the inhibition at 100 µM was 0 to 30%.
Still for that read-out and setting: the same measure for `Cc1cccc(-c2ncc(CNC34CC5CC(CC(C5)C3)C4)cn2)c1` [Example 63b, N-((2-mtolylpyrimidin-5-yl)methyl)adamantan-1-amine]: 0 to 30%.
